Data on two compounds can be found in US8765803B1, “Rab7 GTPase inhibitors and related methods of treatment” (STC.UNM, priority 2011, dated 2014).

Data set [1] has as its system Rab7 wt. Kind of data set: Equilibrium binding with varying fluorescent nucleotide at fixed CID1067700 concentration. The method, then:
Dose response assays were conducted in two different modes. […].
[…]. […] […].

Data set [2] relates to EGFR degradation in SCC-12F cells. Kind of data set: EGFR degradation in SCC-12F cells. The format is cell-based. The following applies: human keratinocytes (SCC-12F), 10-100 μM. The procedure:
SCC-12F cells were seeded in 12-well plates at 0.12×10^6 cells/well and allowed to grow overnight. On the day of the experiment, the cells were starved in serum free medium containing 25 μg/mL cycloheximide for 2 h before compounds at different concentrations were added. The cells were treated for 30 min. Then, ligand EGF was added to 20 nM. At time points of 0, 15, 30, 60, and 120 min after the EGF addition, the suspension medium was removed and the cell was quickly washed with cold PBS and frozen at −80° C. For electrophoresis and blotting, CelLytic™M Cell Lysis buffer containing protease inhibitor cocktails was added to the frozen cells to obtain the cell lysates according to the protocols from the manufacture. Protein concentration was quantified using BCA assay kit. For SDS-PAGE, 10 μg protein was loaded to each lane and proteins transferred to nitrocellulose. The nitrocellulose membranes were probed with antibodies directed against EGFR or actin and detected using peroxidase conjugated secondary antibodies and SuperSignal West Dura. Signal intensities were measured and quantified using a ChemiDoc™ XRS+ molecular imager coupled with Image Lab software.

For data set [3], the system named is EGFR degradation in HeLa-Rab7 wt cells. Kind of data set: EGFR degradation in Rab7 overexpressing HeLa cells. In kind it is cell-based, human. Conditions: 100 μM. The procedure: EGFR degradation was also monitored in HeLa cells with some minor modifications. […] Cell lysates were prepared at various time points and immunoblotted for total EGFR while actin served as a loading control.

The subject of a further data set is VLA-4 integrin. In words: LDV binding assay in U937 ΔST cells. The format is cell-based. Conditions: FITC-LDV 4 nM, after N-formyl peptide stimulation. The procedure:
The procedure followed the established protocols described previously. U937 ΔST cells (0.4−0.8×10^6 cells/mL) were constantly stirred with a magnetic stir bar at 500 rpm in a test tube. The fluorescence was recorded on a FACScan flow cytometer. The base line fluorescence of the cells was established for 30s. FITC-LDV at a concentration of 4 nM was then added. After the fluorescence stabilized at around 120s, the chemotactic ligand N-formyl peptide was added for stimulation resulting activation of VLA-4 integrin and additional FITC-LDV binding. […] Fluorescence was continually recorded until no further change was observed. The inhibition percentage was calculated according to Equation 1.

For the next data set, the system named is U937 cells. In words: Cytotoxicity of compounds, cell density and viability. The format is cell-based. The method, then: U937 cells were grown to a density of 0.4×10^6 cells/mL Compounds were added to a final concentration of 20 μM or otherwise indicated. As a control, cells were treated with DMSO of the same volume. After 24 h incubation, the density and viability of the cells were measured with Countess Cell Counter according to the protocols from the manufacturer.

A short description of data set [4]: Solubility in PBS and assay media, UV absorbance detection. In kind it is physicochemical. The following applies: read-out: Solubility. The procedure:
Solubility was measured in phosphate buffered saline (PBS) at room temperature (23° C.). PBS by definition is 137 mM NaCl, 2.7 mM KCl, 10 mM sodium phosphate dibasic, 2 mM potassium phosphate monobasic and a pH of 7.4. Detection was based on UV absorbance. […]. Solubility was also assessed in the each of the four media used in the individual assays. […]

A short description of data set [5]: Stability in PBS at room temperature. In kind it is physicochemical. Conditions: 23° C., after 48 hours, no antioxidants, DMSO below 0.1%. The procedure: Stability, depicted as closed circles in the graph, was assessed at room temperature (23° C.) in PBS (no antioxidants or other protectants and DMSO concentration below 0.1%). Stability data is depicted as a graph showing the loss of compound with time over a 48 hr period with a minimum of 6 time points and providing the percent remaining compound at end of the 48 hr period.

Data set [6] in a line: Chemical stability towards L-glutathione in DMSO, LCMS. In kind it is physicochemical. Conditions: 1.2-3.0 eq L-glutathione in DMSO, 37° C., up to 72 h. The procedure:
The three experiments were monitored by LCMS at each of the following time points: 1 h, 2 h, 4 h, 24 h, 48 h, and 72 h. Procedure: […]

Data set [7] relates to Ras-related GTPases (Cdc42 wt, Rac1wt, Rac1Q61L, Rab2 wt, Rab7 wt, and H-Ras wt). The following applies: secondary multiplex dose response.
Method: The eight GTPases were grouped into two sets: Rab7, H-Ras wild type and its V12 mutant, and Cdc42 and its L61 mutant were assayed in a buffer containing 1 mM EDTA, while Rho, Rac1 and its L61 mutant, and Cdc42 and its L61 mutant were assayed in the same buffer but instead containing 1 mM Mg^2+ with Cdc42 and its mutant being tested in both buffers. Besides 1 mM EDTA or 1 mM Mg^2+, the buffer contained 30 mM HEPES, pH 7.5, 40 mM KCl, 100 mM NaCl, 0.1% (v/v) NP-40 and 1% BSA. For each multiplex reaction, an extra set of beads was included to serve as scavengers to bind any proteins that dissociate from their assigned bead set and thereby reduce interference due to protein dissociation during the assay. […] Briefly, each individual GST-tagged enzyme was incubated with 4 μm glutathione-coated microsphere beads overnight with gentle rotation. The microsphere beads have different red fluorescence dyes incorporated and therefore could be separated by a flow cytometer. The unbound enzyme was removed by sufficient washing with the buffer. The bead sets were then combined and dispensed to 384-well plates at 5 μL/well. For one plate, 0.5 μg each of the enzymes and 4.0×10^4 of each bead were used. Then 100 nL compound was added using Biomek FX followed by the addition of 5 μL/well of BODIPY-FL-GTP (ribose-linked BODIPY). […] The beads were aspirated and delivered with the HyperCyt® instrument and read on CyAnADP flow cytometer. Forward scatter and side scatter was used to define the whole bead population. […] The data was analyzed by the HyperView® software developed by Dr. Bruce Edward at the University of New Mexico.
Briefly, six sets of beads (each with a unique red fluorescence intensity) were individually coated with six representative GST-tagged Ras-related GTPases (Cdc42 wt, Rac1wt, Rac1Q61L, Rab2 wt, Rab7 wt, and H-Ras wt) (FIG. 29A). The individually conjugated beads were then assayed in the presence of individual compounds in the Molecular Libraries Small Molecule Repository using a HyperCyt flow cytometry to identify molecules that altered the binding of fluorescent nucleotide to Ras-family GTPases (36).
In data set [8] the test system is Rab7 wt. In words: Nucleotide dissociation assay under equilibrium conditions. Conditions: CID1067700 10 μM, compared with unlabeled GDP 10 μM.
Method: This low level bead associated fluorescence was subtracted from specific binding to obtain accurate measurement of the off rates. Data normalization was performed by subtracting dilution only values from competitor treated experimental values.
The experiment was carried out by pre-binding BODIPY-GTP or BODIPY-GDP to GST-tagged Rab7 protein to equilibrium and then assaying for the loss of fluorescence over time occasioned by the release of bound nucleotide (FIG. 31A-D). […] Dissociation rate constants were calculated from data fit to exponential functions using Prism software.
The target in data set [9] is Rab7 wt. The following applies: previously determined (ref 33); read-out: Equilibrium dissociation constant Kd for wild-type Rab7; cited from earlier work.

Where “and” joins values, the source holds several entries; their conditions need not be identical. Equal entries are not always repeated. Where two headings read alike, the source gives them in different places.

For `CC1(C)Cc2c(sc(NC(=S)NC(=O)c3ccccc3)c2C(=O)O)CO1` [CID1067700, 2-(3-benzoylthioureido)-5,5-dimethyl-5,7-dihydro-4H-thieno[2,3-c]pyran-3-carboxylic acid], in the data set with Rab7 wt [1], the “Increase of Ki (Cheng Prusoff) between inhibition of BODIPY-GTP and BODIPY-GDP” value is recorded as 2 fold. Also, the “Effect on Rab7 wt Bmax for BODIPY-GTP” value in the data set on Rab7 wt [1] (CID1067700 100 nM) is “does not alter”. The “Effect on Rab7 wt Bmax for BODIPY-GDP” value in the data set on Rab7 wt [1] (CID1067700 200 nM) is on record as “does not alter”. The “Increase in observed EC50 for both nucleotides in the presence of CID1067700” value with Rab7 wt [1] (CID1067700 fixed at 100-200 nM) is on record as at most 3 fold. In addition, the “Growth factor receptor (EGFR) degradation” value in data set [2] and in [3] was “decreased” each time. In addition, the “VLA4 binding with LDV peptide” value in the data set on VLA-4 integrin is given as “inhibits”. Further, the “Cell viability of U937 cells after treatment” value in the data set on U937 cells (24 h, 20 μM) turned out to be 94%. Moreover, the “Cytotoxicity in U937 cells” value in the data set on U937 cells (24 h in growth medium) was “no obvious cytotoxicity”. Also, the solubility in data set [4] (Dose Response-EDTA buffer, pH 7.5, aqueous with cosolvent or surfactant or cyclodextrin, Dose Response-EDTA buffer: 30 mM HEPES, pH 7.5, 100 mM KCl, 20 mM NaCl, 0.01% NP-40, 1 mM EDTA) is 69.7 µg/mL; in data set [4] (Dose Response-EDTA buffer, pH 7.5, aqueous with cosolvent or surfactant or cyclodextrin, Dose Response-EDTA buffer) it was 178 µM; in [4] (Dose Response-Mg buffer, pH 7.5, aqueous with cosolvent or surfactant or cyclodextrin, Dose Response-Mg buffer: 30 mM HEPES, pH 7.5, 100 mM KCl, 20 mM NaCl, 0.01% NP-40, 1 mM MgCl2) it was 68.1 µg/mL; in data set [4] (Dose Response-Mg buffer, pH 7.5, aqueous with cosolvent or surfactant or cyclodextrin, Dose Response-Mg buffer), 174 µM; in [4] (phosphate buffered saline (PBS), 23 °C, pH 7.4, aqueous buffer, 1 × PBS, pH 7.4, room temperature (23° C.)) it was > 116 µg/mL and > 297 µM. In [5], this compound yielded a Percent remaining compound of 77%. Also, the “Glutathione conjugate formation by LCMS” value was “did not result in LCMS detection of any conjugates or other product peaks” in data set [6] and “No glutathione conjugate or other peaks were observed” in [6] (listed as SID 85747738). Also, the 50% effective concentration (EC50) in data set [7] (read-out: EC50 against all tested GTPases, fluorescent GTP) lay within 20 to 500 nM. In data set [7], the “Inhibition against all tested GTPases” value is recorded as “at least 40%”. For the same compound, in the data set on Rab7 wt [8], the “Effect on rate of release of bound BODIPY-GTP or BODIPY-GDP” value is listed as “no effect”.

Regarding “BODIPY FL GTP 2′-(or 3′)-O—[N-(2-aminoethyl)urethane] [BODIPY-GTP]”, at Rab7 wt [9], the Kd was 100 nM.

Usually solubility stands for how much of the substance goes into solution per volume. The EC50 is the concentration at which the effect is half-maximal. The term Kd denotes a measure of binding affinity in units of concentration.
